Source: patent US9695155B2, “Herbicidal substituted pyrimidinyloxy benzene compounds” (E. I. DU PONT DE NEMOURS AND COMPANY, priority 2013, dated 2017)

Assays:
velvetleaf = assay: Test C postemergence; format: in vivo, Abutilon theophrasti
Procedure, shortened: (§1)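 Seeds are planted in blended loam soil and sand and treated preemergence, while seedlings in a peat moss/vermiculite medium receive postemergence sprays at 2 to 18 cm height. All plants stay in the greenhouse for 13 to 15 days before visual comparison with controls on a 0–100 scale.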

giant foxtail = assay: Test A preemergence; format: in vivo, Setaria faberii; conditions: Setaria faberi, pre-emergence, 240 h, 0 to 100 scale where 0 is no effect and 100 is complete control
Procedure, shortened: (§2)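 Pre- and postemergence greenhouse screen. Soil: loam + sand. Spray carrier: solvent mixture, non-phytotoxic, with surfactant. Post timing at 1–2 leaves, height 2–10 cm. Readout: visual injury on a 0–100 scale roughly 10 days after application, untreated plants as reference.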

galium = assay: Test C postemergence; format: in vivo, Galium aparine; conditions: Galium, post-emergence
Procedure, shortened: as §1

kochia = assay: Test C postemergence; format: in vivo, Kochia scoparia; conditions: Bassia scoparia, post-emergence
Procedure, shortened: as §1

wheat, winter = assay: Test C postemergence; format: in vivo, Triticum aestivum
Procedure, shortened: as §1

ragweed = assay: Test C postemergence; format: in vivo, Ambrosia elatior
Procedure, shortened: as §1

oilseed rape = assay: Test C postemergence; format: in vivo, Brassica napus
Procedure, shortened: as §1

corn = assay: Test A postemergence; format: in vivo, Zea mays; conditions: Zea mays, post-emergence, 240 h, 0 to 100 scale where 0 is no effect and 100 is complete control
Procedure, shortened: as §2

johnsongrass = assay: Test C postemergence; format: in vivo, Sorghum halepense
Procedure, shortened: as §1

waterhemp = assay: Test C postemergence; format: in vivo, Amaranthus rudis
Procedure, shortened: as §1

pigweed = assay: Test C postemergence; format: in vivo, Amaranthus retroflexus
Procedure, shortened: as §1

soybean = assay: Test C postemergence; format: in vivo, Glycine max
Procedure, shortened: as §1

blackgrass = assay: Test C postemergence; format: in vivo, Alopecurus myosuroides; conditions: Alopecurus myosuroides, post-emergence
Procedure, shortened: as §1

[1] = 31 g ai/ha, postemergence, visual rating, scale 0 to 100 (0 no effect, 100 complete control), 13 to 15 days

SMILES: FC(F)c1cn(-c2ccccc2Oc2ncc(Cl)cn2)nn1 [Compound 147, 5-chloro-2-[2-[4-(difluoromethyl)-1H-1,2,3-triazol-1-yl]phenoxy]pyrimidine]
- Velvetleaf plant response rating (velvetleaf; [1]): 70
- pest or weed control at 16 g/ha (velvetleaf; Abutilon theophrasti, post-emergence, 16 g ai/ha, postemergence, 0 is no effect, 100 is complete control, read-out: Plant response rating (0 to 100), Velvetleaf): 55%
- pest or weed control at 125 g/ha (velvetleaf; Abutilon theophrasti, post-emergence, 125 g ai/ha, postemergence, visual rating, scale 0 to 100 (0 no effect, 100 complete control), read-out: Plant response rating, Velvetleaf): 75%
- pest or weed control at 62 g/ha (velvetleaf; Abutilon theophrasti, post-emergence, Postemergence, 62 g ai/ha, scale 0 to 100 (0 no effect, 100 complete control), read-out: Plant response rating, Velvetleaf): 85%
- pest or weed control at 125 g/ha (giant foxtail; 125 g ai/ha, read-out: Plant response rating, Foxtail, Giant): 100%
- pest or weed control at 500 g/ha (giant foxtail; 500 g ai/ha, read-out: Foxtail, Giant plant response rating): 100%
- pest or weed control at 16 g/ha (galium; 16 g ai/ha, postemergence, 0 is no effect, 100 is complete control, read-out: Plant response rating (0 to 100), Galium): 85%
- pest or weed control at 31 g/ha (galium; 31 g ai/ha, postemergence, visual rating, scale 0 to 100 (0 no effect, 100 complete control), 13 to 15 days, read-out: Galium plant response rating): 90%
- pest or weed control at 125 g/ha (galium; 125 g ai/ha, postemergence, visual rating, scale 0 to 100 (0 no effect, 100 complete control), read-out: Plant response rating, Galium): 90%
- pest or weed control at 62 g/ha (galium; Postemergence, 62 g ai/ha, scale 0 to 100 (0 no effect, 100 complete control), read-out: Plant response rating, Galium): 90%
- pest or weed control at 16 g/ha (kochia; 16 g ai/ha, postemergence, 0 is no effect, 100 is complete control, read-out: Plant response rating (0 to 100), Kochia): 40%
- pest or weed control at 31 g/ha (kochia; 31 g ai/ha, postemergence, visual rating, scale 0 to 100 (0 no effect, 100 complete control), 13 to 15 days, read-out: Kochia plant response rating): 90%
- pest or weed control at 125 g/ha (kochia; 125 g ai/ha, postemergence, visual rating, scale 0 to 100 (0 no effect, 100 complete control), read-out: Plant response rating, Kochia): 100%
- pest or weed control at 62 g/ha (kochia; Postemergence, 62 g ai/ha, scale 0 to 100 (0 no effect, 100 complete control), read-out: Plant response rating, Kochia): 95%
- Wheat plant response rating (wheat, winter; [1]): 5
- plant injury at 16 g/ha (wheat, winter; Triticum aestivum, post-emergence, 16 g ai/ha, postemergence, 0 is no effect, 100 is complete control, read-out: Plant response rating (0 to 100), Wheat): 0%
- plant injury at 125 g/ha (wheat, winter; Triticum aestivum, post-emergence, 125 g ai/ha, postemergence, visual rating, scale 0 to 100 (0 no effect, 100 complete control), read-out: Plant response rating, Wheat): 15%
- plant injury at 62 g/ha (wheat, winter; Triticum aestivum, post-emergence, Postemergence, 62 g ai/ha, scale 0 to 100 (0 no effect, 100 complete control), read-out: Plant response rating, Wheat): 10%
- Ragweed plant response rating (ragweed; [1]): 65
- pest or weed control at 16 g/ha (ragweed; Ambrosia artemisiifolia, post-emergence, 16 g ai/ha, postemergence, 0 is no effect, 100 is complete control, read-out: Plant response rating (0 to 100), Ragweed): 40%
- pest or weed control at 125 g/ha (ragweed; Ambrosia artemisiifolia, post-emergence, 125 g ai/ha, postemergence, visual rating, scale 0 to 100 (0 no effect, 100 complete control), read-out: Plant response rating, Ragweed): 85%
- pest or weed control at 62 g/ha (ragweed; Ambrosia artemisiifolia, post-emergence, Postemergence, 62 g ai/ha, scale 0 to 100 (0 no effect, 100 complete control), read-out: Plant response rating, Ragweed): 75%
- Oilseed Rape plant response rating (oilseed rape; [1]): 40
- plant injury at 16 g/ha (oilseed rape; Brassica napus, post-emergence, 16 g ai/ha, postemergence, 0 is no effect, 100 is complete control, read-out: Plant response rating (0 to 100), Oilseed Rape): 25%
- plant injury at 125 g/ha (oilseed rape; Brassica napus, post-emergence, 125 g ai/ha, postemergence, visual rating, scale 0 to 100 (0 no effect, 100 complete control), read-out: Plant response rating, Oilseed Rape): 95%
- plant injury at 62 g/ha (oilseed rape; Brassica napus, post-emergence, Postemergence, 62 g ai/ha, scale 0 to 100 (0 no effect, 100 complete control), read-out: Plant response rating, Oilseed Rape): 75%
- plant injury at 125 g/ha (corn; 125 g ai/ha, read-out: Corn plant response rating): 40%
- Corn plant response rating (crop injury, 0 = no effect, 100 = complete kill) at 500 g/ha (corn; 500 g ai/ha): 90%
- Johnsongrass plant response rating (johnsongrass; [1]): 5
- pest or weed control at 16 g/ha (johnsongrass; Sorghum halepense, post-emergence, 16 g ai/ha, postemergence, 0 is no effect, 100 is complete control, read-out: Plant response rating (0 to 100), Johnsongrass): 5%
- pest or weed control at 125 g/ha (johnsongrass; Sorghum halepense, post-emergence, 125 g ai/ha, postemergence, visual rating, scale 0 to 100 (0 no effect, 100 complete control), read-out: Plant response rating, Johnsongrass): 10%
- pest or weed control at 62 g/ha (johnsongrass; Sorghum halepense, post-emergence, Postemergence, 62 g ai/ha, scale 0 to 100 (0 no effect, 100 complete control), read-out: Plant response rating, Johnsongrass): 5%
- Waterhemp plant response rating (waterhemp; [1]): 55
- pest or weed control at 16 g/ha (waterhemp; Amaranthus tuberculatus, post-emergence, 16 g ai/ha, postemergence, 0 is no effect, 100 is complete control, read-out: Plant response rating (0 to 100), Waterhemp): 40%
- pest or weed control at 125 g/ha (waterhemp; Amaranthus tuberculatus, post-emergence, 125 g ai/ha, postemergence, visual rating, scale 0 to 100 (0 no effect, 100 complete control), read-out: Plant response rating, Waterhemp): 70%
- pest or weed control at 62 g/ha (waterhemp; Amaranthus tuberculatus, post-emergence, Postemergence, 62 g ai/ha, scale 0 to 100 (0 no effect, 100 complete control), read-out: Plant response rating, Waterhemp): 85%
- Pigweed plant response rating (pigweed; [1]): 60
- pest or weed control at 16 g/ha (pigweed; Amaranthus retroflexus, post-emergence, 16 g ai/ha, postemergence, 0 is no effect, 100 is complete control, read-out: Plant response rating (0 to 100), Pigweed): 35%
- pest or weed control at 125 g/ha (pigweed; Amaranthus retroflexus, post-emergence, 125 g ai/ha, postemergence, visual rating, scale 0 to 100 (0 no effect, 100 complete control), read-out: Plant response rating, Pigweed): 85%
- pest or weed control at 62 g/ha (pigweed; Amaranthus retroflexus, post-emergence, Postemergence, 62 g ai/ha, scale 0 to 100 (0 no effect, 100 complete control), read-out: Plant response rating, Pigweed): 75%
- Soybean plant response rating (soybean; [1]): 65
- Soybean plant response rating (crop injury, 0-100 scale) at 16 g/ha (soybean; Glycine max, post-emergence, 16 g ai/ha, postemergence, 0 is no effect, 100 is complete control): 65%
- Soybean plant response rating (crop injury, 0-100 scale) at 125 g/ha (soybean; Glycine max, post-emergence, 125 g ai/ha, postemergence, visual rating, scale 0 to 100 (0 no effect, 100 complete control), read-out: Plant response rating, Soybean): 90%
- Soybean plant response rating (crop injury, 0-100 scale) at 62 g/ha (soybean; Glycine max, post-emergence, Postemergence, 62 g ai/ha, scale 0 to 100 (0 no effect, 100 complete control)): 85%
- pest or weed control at 16 g/ha (blackgrass; 16 g ai/ha, postemergence, 0 is no effect, 100 is complete control, read-out: Plant response rating (0 to 100), Blackgrass): 0%
- pest or weed control at 31 g/ha (blackgrass; 31 g ai/ha, postemergence, visual rating, scale 0 to 100 (0 no effect, 100 complete control), 13 to 15 days, read-out: Blackgrass plant response rating): 0%
- pest or weed control at 125 g/ha (blackgrass; 125 g ai/ha, postemergence, visual rating, scale 0 to 100 (0 no effect, 100 complete control), read-out: Plant response rating, Blackgrass): 10%
- pest or weed control at 62 g/ha (blackgrass; Postemergence, 62 g ai/ha, scale 0 to 100 (0 no effect, 100 complete control), read-out: Plant response rating, Blackgrass): 0%
